Test system: human immunodeficiency virus type 1 (HIV-1)
Experiment: microbe, parasite or virus in culture
Assay type: cell-based
Details: Human immunodeficiency virus 1, HeLa, 48 h, HIV-1 luciferase reporter, HeLa cells, 48 hours after infection

For `COc1cc2c(cc1COc1ccc(F)cc1)c(=O)c(C(=O)O)cn2[C@H](CO)C(C)C` [Example 15A, (S)-6-((4-fluorophenoxy)methyl)-1-(1-hydroxy-3-methylbutan-2-yl)-7-methoxy-4-oxo-1,4-dihydroquinoline-3-carboxylic acid], which EC50 is on record?
Its EC50 is over 100 nM.

With `COc1nc2c(cc1NCc1cc(F)cc(F)c1)c(=O)c(C(=O)O)cn2[C@H](CO)C(C)C` [Example 20HH, (S)-6-(3,5-difluorobenzylamino)-1-(1-hydroxy-3-methylbutan-2-yl)-7-methoxy-4-oxo-1,4-dihydro-1,8-naphthyridine-3-carboxylic acid] as the molecule, how does the EC50 read?
The EC50 was over 100 nM.

With `CN(C)CCCOc1nc2c(cc1Cc1cccc(Cl)c1F)c(=O)c(C(=O)O)cn2[C@H](CO)C(C)(C)C` [Example 2L] as the molecule, how does the EC50 read?
The EC50 was 10 to 100 nM.

How did the EC50 turn out when `COc1nc2c(cc1-c1ccncc1)c(=O)c(C(=O)O)cn2[C@H](CO)C(C)C` [Example 17G] was run?
Its EC50 is over 100 nM.

`COc1nc2c(cc1NCc1ccc(C(F)(F)F)cc1)c(=O)c(C(=O)O)cn2[C@H](CO)C(C)C` [Example 20Y, (S)-1-(1-hydroxy-3-methylbutan-2-yl)-7-methoxy-4-oxo-6-(4-(trifluoromethyl)benzylamino)-1,4-dihydro-1,8-naphthyridine-3-carboxylic acid] was tested. Which EC50 did it give?
The EC50 was over 100 nM.

With `CC(C)(C)[C@@H](CO)n1cc(C(=O)O)c(=O)c2cc(Cc3cccc(Cl)c3F)c(OCCCCO)nc21` [Example 2G] as the molecule, how does the EC50 read?
Its EC50 is 10 to 100 nM.

For `COc1cc2c(nc1Cc1cccc(Cl)c1F)c(=O)c(C(=O)O)cn2[C@H](CO)C(C)C` [Example 8D, 6-(3-Chloro-2-fluoro-benzyl)-1-((S)-1-hydroxymethyl-2-methyl-propyl)-7-methoxy-4-oxo-1,4-dihydro-[1.5]naphthyridine-3-carboxylic acid], which EC50 is on record?
Its EC50 is over 100 nM.

How did the EC50 turn out when `COc1nc2c(cc1-c1cccc(OCc3ccccc3)c1)c(=O)c(C(=O)O)cn2[C@H](CO)C(C)C` [Example 17L] was run?
The EC50 was over 100 nM.

For `CC[C@@H](CO)n1cc(C(=O)O)c(=O)c2cc(Cc3cccc(Cl)c3F)c(OC)nc21` [Example 1I], which EC50 is on record?
The EC50 was 10 to 100 nM.

For `CC(C)(C)[C@@H](CO)n1cc(C(=O)O)c(=O)c2cc(Cc3cccc(Cl)c3F)c(NCCN3CCOCC3)nc21` [Example 2CC], which EC50 is on record?
Its EC50 is under 10 nM.

How did the EC50 turn out when `COc1nc2c(cc1Cc1c(F)cc(F)cc1F)c(=O)c(C(=O)O)cn2[C@H](CO)C(C)C` [Example 1D] was run?
Its EC50 is over 100 nM.

With `COc1nc2c(cc1-c1cccc(Cl)c1F)c(=O)c(C(=O)O)cn2[C@H](CO)C(C)C` [Example 17C] as the molecule, how does the EC50 read?
Its EC50 is over 100 nM.

Which EC50 does the source give for `CC(C)(C)[C@@H](CO)n1cc(C(=O)O)c(=O)c2cc(NCc3ccc(F)cc3)c(F)cc21` [Example 26A, (S)-7-fluoro-6-(4-fluorobenzylamino)-1-(1-hydroxy-3,3-dimethylbutan-2-yl)-4-oxo-1,4-dihydroquinoline-3-carboxylic acid] here?
Its EC50 is 10 to 100 nM.

With `COc1nc2c(cc1NCc1c(F)cccc1F)c(=O)c(C(=O)O)cn2[C@H](CO)C(C)C` [Example 20Z, (S)-6-(2,6-difluorobenzylamino)-1-(1-hydroxy-3-methylbutan-2-yl)-7-methoxy-4-oxo-1,4-dihydro-1,8-naphthyridine-3-carboxylic acid] as the molecule, how does the EC50 read?
The EC50 was 10 to 100 nM.

With `CC(C)(C)[C@@H](CO)n1cc(C(=O)O)c(=O)c2cc(Cc3cccc(Cl)c3F)c(NCCCO)nc21` [Example 2S] as the molecule, how does the EC50 read?
Its EC50 is 10 to 100 nM.

How did the EC50 turn out when `CCC(C)C(CO)n1cc(C(=O)O)c(=O)c2cc(Cc3cccc(Cl)c3F)ncc21` (stereo not shown) [Example 5H] was run?
The EC50 was 10 to 100 nM.

How did the EC50 turn out when `CC(C)(C)[C@@H](CO)n1cc(C(=O)O)c(=O)c2cc(Cc3cccc(Cl)c3F)c(NCCO)nc21` [Example 2R] was run?
The EC50 was under 10 nM.

For `CC(C)(C)[C@@H](CO)n1cc(C(=O)O)c(=O)c2cc(Cc3cccc(Cl)c3F)c(OCc3cccnc3)nc21` [Example 2N], which EC50 is on record?
Its EC50 is under 10 nM.

How did the EC50 turn out when `CC(C)[C@@H](CO)n1cc(C(=O)O)c(=O)c2nc(Cc3cccc(Cl)c3)ccc21` [Example 8C, 6-(3-Chloro-benzyl)-1-((S)-1-hydroxymethyl-2-methyl-propyl)-4-oxo-1,4-dihydro-[1,5]naphthyridine-3-carboxylic acid] was run?
The EC50 was over 100 nM.

Which EC50 does the source give for `COc1nc2c(cc1Cc1cccc(Cl)c1F)c(=O)c(C(=O)O)cn2C(CO)CO` [Example 1M] here?
Its EC50 is over 100 nM.

Which EC50 does the source give for `O=C(O)c1cn([C@H](CO)CC2CCCCC2)c2cnc(Cc3cccc(Cl)c3F)cc2c1=O` [Example 5N] here?
Its EC50 is over 100 nM.

How did the EC50 turn out when `COc1nc(Cc2cccc(Cl)c2F)cc2c(=O)c(C(=O)O)cn([C@H](CO)C(C)C)c12` [Example 5D, 6-(3-Chloro-2-fluoro-benzyl)-1-((S)-1-hydroxymethyl-2-methyl-propyl)-8-methoxy-4-oxo-1,4-dihydro-1,7-naphthyridine-3-carboxylic acid] was run?
Its EC50 is over 100 nM.

Which EC50 does the source give for `COc1nc2c(cc1CNc1cccc3c1CCCC3)c(=O)c(C(=O)O)cn2[C@H](CO)C(C)C` [Example 12E] here?
Its EC50 is over 100 nM.

Which EC50 does the source give for `CC[C@@H](CO)n1cc(C(=O)O)c(=O)c2cc(Cc3cccc(Cl)c3F)ncc21` [Example 5G] here?
The EC50 was over 100 nM.

Which EC50 does the source give for `CC(C)(C)[C@@H](CO)n1cc(C(=O)O)c(=O)c2cc(Cc3cccc(Cl)c3F)c(NCCCN3CCOCC3)nc21` [Example 2DD] here?
Its EC50 is under 10 nM.

With `CCOc1nc2c(cc1NCc1ccc(F)cc1)c(=O)c(C(=O)O)cn2[C@H](CO)C(C)C` [Example 27A, (S)-7-Ethoxy-6-(4-fluorobenzylamino)-1-(1-hydroxy-3-methylbutan-2-yl)-4-oxo-1,4-dihydro-1,8-naphthyridine-3-carboxylic acid] as the molecule, how does the EC50 read?
The EC50 was over 100 nM.

Which EC50 does the source give for `COCCOc1nc2c(cc1Cc1cccc(Cl)c1F)c(=O)c(C(=O)O)cn2[C@H](CO)C(C)(C)C` [Example 2H] here?
The EC50 was under 10 nM.

With `CC(C)[C@@H](CO)n1cc(C(=O)O)c(=O)c2cc(Cc3cccc(Cl)c3)ncc21` [Example 5C, 6-(3-Chloro-benzyl)-1-((S)-1-hydroxymethyl-2-methyl-propyl)-4-oxo-1,4-dihydro-[1,7]naphthyridine-3-carboxylic acid] as the molecule, how does the EC50 read?
The EC50 was over 100 nM.

`COc1nc2c(cc1N[C@H](C)c1ccc(F)cc1)c(=O)c(C(=O)O)cn2[C@H](CO)C(C)C` [Example 20LL, 6-((R)-1-(4-fluorophenyl)ethylamino)-1-((S)-1-hydroxy-3-methylbutan-2-yl)-7-methoxy-4-oxo-1,4-dihydro-1,8-naphthyridine-3-carboxylic acid] was tested. Which EC50 did it give?
Its EC50 is over 100 nM.

Which EC50 does the source give for `COCCN1CCN(c2nc3c(cc2Cc2cccc(Cl)c2F)c(=O)c(C(=O)O)cn3[C@H](CO)C(C)(C)C)CC1` [Example 2AA] here?
Its EC50 is 10 to 100 nM.

Which EC50 does the source give for `COc1cc2c(cc1OCc1cc(Cl)ccc1F)c(=O)c(C(=O)O)cn2[C@H](CO)C(C)(C)C` [Example 29D, (S)-6-(5-chloro-2-fluorobenzyloxy)-1-(1-hydroxy-3,3-dimethylbutan-2-yl)-7-methoxy-4-oxo-1,4-dihydroquinoline-3-carboxylic acid] here?
Its EC50 is over 100 nM.

`COc1nc2c(cc1NCc1ccccc1C(F)(F)F)c(=O)c(C(=O)O)cn2[C@H](CO)C(C)C` [Example 20W, (S)-1-(1-hydroxy-3-methylbutan-2-yl)-7-methoxy-4-oxo-6-(2-(trifluoromethyl)benzylamino)-1,4-dihydro-1,8-naphthyridine-3-carboxylic acid] was tested. Which EC50 did it give?
The EC50 was over 100 nM.

`COc1nc2c(cc1NCc1cccc(Cl)c1F)c(=O)c(C(=O)O)cn2[C@H](CO)C(C)C` [Example 20B, (S)-6-(3-chloro-2-fluorobenzylamino)-1-(1-hydroxy-3-methylbutan-2-yl)-7-methoxy-4-oxo-1,4-dihydro-1,8-naphthyridine-3-carboxylic acid] was tested. Which EC50 did it give?
Its EC50 is over 100 nM.

For `CC(C)(C)[C@@H](CO)n1cc(C(=O)O)c(=O)c2cc(Cc3cccc(Cl)c3F)c(NCCCN3CCCC3=O)nc21` [Example 2EE], which EC50 is on record?
Its EC50 is under 10 nM.

Reference: patent publication US20110166123A1, “NOVEL COMPOSITIONS AND METHODS OF USE” (priority 2008, published 2011)
